# Reference: patent publication US12337005B2, “Methods of treating thrombosis” (UNIVERSITY OF IOWA RESEARCH FOUNDATION, priority 2020, dated 2025)
# Assays:
# PKM2 dimers [1] = target: T1, PKM2 dimers (Homo sapiens, UniProt P14618); test: Native Western blot of PKM2 dimer and tetramer in stimulated human platelets; assay type: cell-based; conditions: human platelets stimulated with convulxin (100 ng/ml) or thrombin (0.1 U/mL); vs vehicle
# T1 construct: decreased PKM2 dimers in the human platelets stimulated with convulxin or thrombin; endogenous in cells; host or cells: human platelets from healthy volunteers
# Experimental: To obtain human platelets, blood was collected from healthy volunteers free from antiplatelet medication. Informed consent was taken. Platelets were prepared as described. Briefly, blood was collected in tubes containing anticoagulant citrate dextrose solution A and centrifuged at 180 g for 20 min. After addition of apyrase (0.6 U/ml) to PRP, platelets were sedimented by centrifugation at 800 g for 15 min. Cells were washed in buffer A (20 mM HEPES, 138 mM NaCl, 2.9 mM KCl, 1 mM MgCl2, 0.36 mM NaH2PO4, 1 mM EGTA (ethylene glycol tetraacetic acid), supplemented with 5 mM glucose, pH 6.2). Platelets were finally resuspended in buffer B (pH 7.4), which was the same as buffer ‘A’ but without EGTA and apyrase.
# (§1) Platelet proteins were separated on 4-20% SDS-PAGE (sodium dodecyl sulfate-polyacrylamide gel electrophoresis) gradient gels and electrophoretic transferred to PVDF (polyvinylidene fluoride) membrane by using Bio-Rad western blotting system. For PKM2 dimer and tetramer study 6% native gels are used. Membranes were blocked with 5% BSA or skimmed milk in 10 mM Tris-HCl, 150 mM NaCl, pH 8.0 (TBS) containing 0.05% Tween-20 for one hour at room temperature. […] Blots were developed using enhanced chemiluminescence and quantified using Image J software from NIH (Bethesda, MD, USA).
# PKM2 dimers [2] = target: T2, PKM2 dimers (Mus musculus, UniProt P52480); test: Native Western blot of PKM2 dimer and tetramer in stimulated mouse platelets; assay type: cell-based; conditions: mouse platelets stimulated with convulxin or thrombin
# T2 construct: PKM2 dimer and tetramer expression in platelets pre-treated with vehicle or ML265; endogenous in cells; host or cells: mouse platelets
# Experimental: Mouse platelets were prepared. Blood from anesthetized mice was drawn from the retro-orbital plexus and collected in 1.5 mL polypropylene tubes containing 300 μL of enoxaparin (0.3 mg/mL; Sanofi-Aventis, US LLC). The blood was centrifuged at 100 g for 5 minutes, and the platelet-rich plasma (PRP) was collected in a fresh tube. To prevent platelet activation, PRP was incubated with PGI2 (2 μg/mL) at 37° C. for 5 minutes. PRP was further centrifuged at 600 g for 5 minutes. The obtained pellets were suspended in 1 mL modified Tyrode-N-2-hydroxyethylpiperazine-N′-2-ethane sulfonic acid (HEPES) buffer (137 mM NaCl, 0.3 mM Na2HPO4, 2 mM KCl, 12 mM NaHCO3, 5 mM N-2-hydroxyethylpiperazine-N′-2-ethane sulfonic acid, 5 mM glucose, 0.35% bovine serum albumin, pH 7.2). The washing step was repeated twice with Tyrode's to remove PGI2, and platelets were fluorescently labeled with calcein green (wherever required), AM (2.5 μg/mL; Molecular Probes) for 10 minutes at 37° C.
# as §1, with “used.” for “used. Membranes were blocked with 5% BSA or skimmed milk in 10 mM Tris-HCl, 150 mM NaCl, pH 8.0 (TBS) containing 0.05% Tween-20 for one hour at room temperature.”
# human platelets [3] = test: Glucose uptake assay, human platelets; assay type: cell-based; conditions: human platelets stimulated with convulxin or thrombin; ML265 pre-treated (50 and 100 μM)
# Experimental: Glucose uptake was determined in activated versus non-activated platelets using 10 mM ^14C-2-deoxy-glucose. Washed platelets (2×10^8/mL) treated with vehicle (DMSO) or ML265 (50 and 100 μM) were incubated in 1× Tyrode buffer and stimulated with convulxin or thrombin for 10 minutes, placed on ice and then centrifuged at 4000 rpm for 5 minutes. The pellets were washed with cold 1×PBS and solubilized in 1N NAOH. Radioactive counts were determined using a Perkin Elmer TriCarb 2800TR liquid scintillation counter.
# human platelets [4] = test: In vitro platelet aggregation, human platelet-rich plasma; assay type: cell-based; conditions: convulxin, collagen, TRAP and ADP, ML265 50 and 100 μM
# Experimental: Platelet rich plasma (PRP) or washed platelets (2×10^8/ml) treated with vehicle (DMSO) or ML265 (50 and 100 μM) were stirred (1200 rpm) at 37° C. for 2 min in a whole blood/optical lumi-aggregometer (Chrono-log; model 700-2) before the addition of agonists (convulxin, collagen, thrombin, PAR4, TRAP (PAR1 agonist) or adenosine diphosphate [ADP]). Aggregation was measured as percent change in light transmission, where 100% refers to transmittance through the blank sample (PRP/Buffer). Platelet dense granule secretion was determined by measuring the release of ATP using luciferin-luciferase reagent. To examine the effect of ML265 on ATP secretion, washed platelets were pretreated with vehicle (DMSO) or ML265 (50 and 100 μM) for 10 minutes before stimulation with various agonists. ATP release was performed in a lumi-aggregometer (Chrono-log; model 700-2) at 37° C.
# human platelets [5] = test: Annexin V-affinity assay, human platelets; assay type: cell-based
# Experimental: Mouse and human washed platelets (1×10^8/ml) were pre-incubated with different concentrations of ML265 ([…]). Washed platelets activated with thrombin (0.5 U/ml)+convulxin (100 ng/ml) were used as a positive control. The samples were added to 1× Annexin V-binding buffer (BD Biosciences). Following this, annexin V-FITC antibody was added to each sample, gently mixed, and incubated at room temperature for 15 minutes in the dark. After incubation, 1× Annexin-binding buffer was added to each tube and analyzed by a Becton Dickinson FACSCalibur flow cytometer.
# integrin αIIbβ3 [6] = test: Integrin αIIbβ3 activation (PAC-1 binding), human platelets; assay type: cell-based; conditions: convulxin or TRAP-induced
# integrin αIIbβ3 [7] = test: Integrin αIIbβ3 activation (JONA binding), mouse platelets; assay type: cell-based; conditions: convulxin and PAR4-induced
# human platelets [8] = test: P-selectin expression (α-granule secretion), human platelets; assay type: cell-based; conditions: stimulus-activated human platelets pretreated with ML265
# Experimental: (§2) Platelets (1×10^8 cells in 100 μl) were pre-incubated for 10 min either in presence or absence of ML265 (50 and 100 μM) then stimulated by convulxin or TRAP without stirring. Following this, platelets were labeled with PE-labeled anti-CD61 antibody and FITC conjugated anti-CD62P antibody. The platelet samples were incubated for 30 min in the dark at room temperature and analyzed on the flow cytometer (FACS Calibur, Becton Dickinson). An amorphous region (gate) was drawn to differentiate the platelets from the noise and multi-platelet particles. After compensation for FITC and PE, CD61-positive 10,000 events were collected for each sample.
# murine platelets = test: P-selectin expression (α-granule secretion), mouse platelets; assay type: cell-based; conditions: stimulus-activated mouse platelets pretreated with ML265
# Experimental: as §2
# [9] = tested on: PI3 kinase-mediated Akt/GSK3β signaling; test: Western blot of Akt/GSK3β phosphorylation, human platelets; assay type: cell-based; conditions: convulxin- or thrombin-mediated, ML265 50 and 100 μM
# Experimental: Platelet proteins were separated on 4-20% SDS-PAGE (sodium dodecyl sulfate-polyacrylamide gel electrophoresis) gradient gels and electrophoretic transferred to PVDF (polyvinylidene fluoride) membrane by using Bio-Rad western blotting system. For PKM2 dimer and tetramer study 6% native gels are used. Membranes were blocked with 5% BSA or skimmed milk in 10 mM Tris-HCl, 150 mM NaCl, pH 8.0 (TBS) containing 0.05% Tween-20 for one hour at room temperature. Blots were incubated for overnight with primary antibody, followed by horseradish peroxidase-labeled secondary antibody for one hour. Blots were developed using enhanced chemiluminescence and quantified using Image J software from NIH (Bethesda, MD, USA).
# [10] = cited from earlier work
# T1 sequence (P14618 2-531 limits assumed): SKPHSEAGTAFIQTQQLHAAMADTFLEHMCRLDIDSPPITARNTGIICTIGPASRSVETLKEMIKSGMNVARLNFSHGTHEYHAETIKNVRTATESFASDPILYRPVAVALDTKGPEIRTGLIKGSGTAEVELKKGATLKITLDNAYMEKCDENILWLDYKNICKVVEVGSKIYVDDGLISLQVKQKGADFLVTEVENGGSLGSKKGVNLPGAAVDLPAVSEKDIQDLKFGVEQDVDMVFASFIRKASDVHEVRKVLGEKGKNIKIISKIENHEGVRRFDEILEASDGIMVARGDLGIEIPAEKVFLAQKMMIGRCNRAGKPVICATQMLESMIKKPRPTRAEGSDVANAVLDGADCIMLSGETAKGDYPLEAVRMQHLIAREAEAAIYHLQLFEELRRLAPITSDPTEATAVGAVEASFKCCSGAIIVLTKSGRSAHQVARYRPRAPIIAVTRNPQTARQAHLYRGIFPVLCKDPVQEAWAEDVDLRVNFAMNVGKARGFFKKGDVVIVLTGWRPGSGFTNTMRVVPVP
# T2 sequence (P52480 2-531 limits assumed): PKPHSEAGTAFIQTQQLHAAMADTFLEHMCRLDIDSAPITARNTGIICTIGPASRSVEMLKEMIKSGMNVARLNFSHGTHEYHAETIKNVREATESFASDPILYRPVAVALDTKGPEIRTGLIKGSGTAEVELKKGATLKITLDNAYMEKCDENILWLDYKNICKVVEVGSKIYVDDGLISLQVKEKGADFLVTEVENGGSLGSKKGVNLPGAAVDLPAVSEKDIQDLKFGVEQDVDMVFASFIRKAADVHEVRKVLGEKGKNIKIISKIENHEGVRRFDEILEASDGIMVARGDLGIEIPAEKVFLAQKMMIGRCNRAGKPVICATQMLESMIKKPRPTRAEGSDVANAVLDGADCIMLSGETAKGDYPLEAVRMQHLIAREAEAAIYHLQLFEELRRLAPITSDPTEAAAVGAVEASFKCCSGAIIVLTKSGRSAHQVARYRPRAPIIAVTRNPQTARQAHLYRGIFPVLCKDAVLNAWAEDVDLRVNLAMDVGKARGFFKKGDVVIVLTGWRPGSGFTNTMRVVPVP
structure (smiles),measurement,setting,value
"Cn1c2cc([S+](C)[O-])sc2c2cnn(Cc3cccc(N)c3)c(=O)c21 (stereo not shown) [ML265, 6-[(3-aminophenyl)methyl]-4,6-dihydro-4-methyl-2-(methylsulfinyl)-5H-thieno[2′,3′:4,5]pyrrolo[2,3-d]pyridazine-5-one]",PKM2 dimers,PKM2 dimers [1],decreased
same,PKM2 dimer formation,PKM2 dimers [2],limited
same,glucose uptake,human platelets [3],significantly decreased
same,stimulus-dependent platelet aggregation,human platelets [4],reduced
same,concentration not inducing phosphatidyl serine surface expression (annexin V),human platelets [5],≤ 300 µM
same,apoptosis in resting platelets (Annexin V binding),human platelets [5]; increasing concentrations of ML265,does not induce
same,activation of αIIbβ3 (PAC-1 binding),integrin αIIbβ3 [6],decreased
same,activation of αIIbβ3 (JONA binding),integrin αIIbβ3 [7],decreased
same,α-granule secretion (P-selectin exposure),human platelets [8],significant decrease
same,α-granule secretion (P-selectin exposure),murine platelets,significant decrease
same,Akt phosphorylation,[9],down-regulated
same,GSK3β phosphorylation,[9],down-regulated
same,half-life,[10],short
